Experimental data taken from US6365578B1, “Drug cominbations containing AZT” (Roger Williams General Hospital, priority 1990, dated 2002).
Like-named read-outs stand apart in the source and are kept apart here.

Assays:
[1] = test system: Balb/C female athymic (nude) mice; details: 4 courses
Method: In vivo tests to assess the toxicity of various dosages of AZT and FUra were carried out on Balb/C female athymic (nude) mice.
(§1) The mice were divided into groups of 5-8 animals each and treated with different doses and schedules of FUra, AZT, or both in combination. FUra and AZT were dissolved in normal saline immediately before use and were administered by intraperitoneal bolus injection so that the desired dose was contained in 0.1 ml/10 g animal body weight. FUra was administered in doses corresponding to 80, 90 and 100 mg/kg weekly or 20, 25, and 30 mg/kg for 5 consecutive days with intervening 2 week rest periods. The AZT component was administered at doses of 300 or 600 mg/kg. In those cases where the two components were not administered simultaneously, the FUra component was administered first followed in approximately 2 hours with the AZT component. Toxicity was assessed by determination of mortality, changes in body weight, and changes in white blood cell counts (WBC). Animal body weights were recorded immediately before and twice weekly after initiation of treatment and weight change was calculated as a percentage of the initial body weight. To determine WBC, blood was collected from the orbital sinus in a heparinized Natelson pipette, and after appropriate dilution the cell number was determined electronically one week after each course of therapy. The tests were carried out in duplicate and the pooled number of animals per treatment group was 10-16.
In the control group the mice received no treatment; in group 2 they received 600 mg/kg of AZT; in group 3 they received 85 mg/kg of FUra; in group 4 they received 85 mg/kg of FUra followed at a 2 hour interval by 600 mg/kg of AZT; in group 5 the mice received 100 mg/kg of FUra alone. A total of 4 courses of administration were carried out, each in triplicate, and the pooled number of animals per treatment group corresponded to 23-30.

[2] = test system: Balb/C female athymic (nude) mice; details: 2 courses
Method: as §1
A second series of toxicity tests were carried out using a different regimen with similar groups of animals as follows:
Group 1 was treated with 600 mg/kg of AZT for days 3 to 5 inclusive; Group 2 was treated with 20 mg/kg of FUra from days 1 to 5; Group 3 was treated with 20 mg/kg of FUra for days 1 to 5 and with 600 mg/kg of AZT for days 3 to 5; Group 4 was treated with 25 mg/kg of FUra for days 1 to 5. The medication was administered by intraperitoneal bolus, the AZT being administered two hours after FUra. The treatment was repeated every two weeks. A total of 2 courses were administered, the tests being carried out in triplicate and the pool number of animals per treatment group corresponded to 21-30.

mice = test: LD10 of MTX in mice; type: in vivo; details: weekly

Cc1cn([C@H]2C[C@H](N=[N+]=[N-])[C@@H](CO)O2)c(=O)[nH]c1=O [AZT, 3′-azido-3′-deoxythymidine]
Mortality (percent dead on day 29 after starting treatment) ([1]; AZT 600 mg/kg i.p.): 0%
Mortality (percent dead on day 29 after starting treatment) ([2]; AZT 600 mg/kg i.p. days 3 to 5, repeated every two weeks): 0%

O=c1[nH]cc(F)c(=O)[nH]1 [FUra, 5-fluorouracil]
Mortality (percent dead on day 29 after starting treatment) ([1]; FUra 85 mg/kg i.p.): 25%
Mortality (percent dead on day 29 after starting treatment) ([1]; FUra 100 mg/kg i.p.): 60.8%
Mortality (percent dead on day 29 after starting treatment) ([2]; FUra 20 mg/kg i.p. days 1 to 5, repeated every two weeks): 0%
Mortality (percent dead on day 29 after starting treatment) ([2]; FUra 25 mg/kg i.p. days 1 to 5, repeated every two weeks): 12.5%

CN(Cc1cnc2nc(N)nc(N)c2n1)c1ccc(C(=O)N[C@@H](CCC(=O)O)C(=O)O)cc1 [MTX, methotrexate]
LD10 (mice): 87.5 mg/kg/wk
